{"source": "patent US4658014A", "about": "“Synthetic peptides with calcitonin-like activity” (priority 1985, dated 1987)", "origin": "cited, not measured here", "conditions": "versus natural eel calcitonin", "data": [{"substance": "[Asu^1,7 ] eel calcitonin", "values": [{"measurement": "activity relative to the naturally occuring hormone with the disulfide bond", "value": "comparable activity"}]}]}
